According to US20230398130A1, “METHODS AND COMPOSITIONS FOR DIFFERENTIATING STEM CELLS” (Massachusetts Institute of Technology, priority 2020, published 2023):
Structures can show the parent of a compound that is named as a salt.

Tested on: ISC-enriched organoids
Assay: Primary screen, 384-well 2.5-D organoid differentiation (ENR+CD, 6 days, Target Selective Inhibitor Library, vs whole-plate median): ATP (CellTiter-Glo 3D, CTG)
[1] = primary screen, dose 0.08 uM, standard z score of FC
[2] = primary screen, dose 0.40 uM, standard z score of FC
[3] = primary screen, dose 2.00 uM, standard z score of FC
[4] = primary screen, dose 10.00 uM, standard z score of FC
[5] = Dose 0.08 uM, standard z score of FC
[6] = Dose 0.40 uM, standard z score of FC
[7] = Dose 2.00 uM, standard z score of FC
[8] = Dose 10.00 uM, standard z score of FC

CC[C@@H]1C(=O)N(C)c2cnc(Nc3ccc(C(=O)NC4CCN(C)CC4)cc3OC)nc2N1C1CCCC1 [BI 2536]
Z.CTG [1]: 0.069
Z.CTG [2]: −1.275
Z.CTG [3]: −1.220
Z.CTG [4]: −2.455

Cc1ccccc1C(=O)Nc1ccc(C(=O)N2CCCC(O)c3cc(Cl)ccc32)c(C)c1 (stereo not drawn) [Tolvaptan]
Z.CTG (standard z score) (dose 0.08 uM): 0.227
Z.CTG (standard z score) (dose 0.40 uM): −0.019
Z.CTG (standard z score) (dose 2.00 uM): −0.225
Z.CTG (standard z score) (dose 10.00 uM): −0.249

CCOC(=O)C1=C(COCCN)NC(C)=C(C(=O)OC)C1c1ccccc1Cl (stereo not drawn) [Amlodipine]
Z.CTG [1]: −0.837
Z.CTG [2]: −0.866
Z.CTG [3]: −0.888
Z.CTG [4]: −1.006

COc1ccc2cc([C@H](C)C(=O)O)ccc2c1 [Naproxen]
Z.CTG [5]: −0.233
Z.CTG [6]: −0.162
Z.CTG [7]: −1.405
Z.CTG [8]: −3.063

Cc1cc(OCCCS(C)(=O)=O)cc(C)c1-c1cccc(COc2ccc3c(c2)OC[C@H]3CC(=O)O)c1 [TAK-875]
Z.CTG (standard z score) (Dose 0.08 uM, primary screen): 0.572
Z.CTG (standard z score) (Dose 0.40 uM, primary screen): −0.392
Z.CTG (standard z score) (Dose 2.00 uM, primary screen): −0.376
Z.CTG (standard z score) (Dose 10.00 uM, primary screen): −0.694

Clc1ccccc1CN1CCc2sccc2C1 [Ticlopidine HCl]
Z.CTG (standard z score) (dose 0.08 uM): −0.281
Z.CTG (standard z score) (dose 0.40 uM): −0.097
Z.CTG (standard z score) (dose 2.00 uM): −0.559
Z.CTG (standard z score) (dose 10.00 uM): −0.013

CCCc1nc2c(C)cc(-c3nc4ccccc4n3C)cc2n1Cc1ccc(-c2ccccc2C(=O)O)cc1 [Telmisartan]
Z.CTG (standard z score) (Dose 0.08 uM, primary screen): 0.320
Z.CTG (standard z score) (Dose 0.40 uM, primary screen): 0.584
Z.CTG (standard z score) (Dose 2.00 uM, primary screen): 0.153
Z.CTG (standard z score) (Dose 10.00 uM, primary screen): 0.549

COC(=O)C1=C(C#N)NC(C)=C(C(=O)OC(C)C)C1c1cccc([N+](=O)[O-])c1 (stereo not drawn) [Nilvadipine]
Z.CTG [5]: 0.493
Z.CTG [6]: 0.324
Z.CTG [7]: 0.506
Z.CTG [8]: 0.460

CC(NC(=O)c1ccccc1/N=C/c1c(O)ccc2ccccc12)c1ccccc1 (stereo not drawn) [Sirtinol]
Z.CTG (standard z score) (Dose 0.08 uM, primary screen): −0.520
Z.CTG (standard z score) (Dose 0.40 uM, primary screen): 0.022
Z.CTG (standard z score) (Dose 2.00 uM, primary screen): −0.287
Z.CTG (standard z score) (Dose 10.00 uM, primary screen): −0.186

Cc1c(-c2ccc(O)cc2)n(Cc2ccc(OCCN3CCCCCC3)cc2)c2ccc(O)cc12 [Bazedoxifene HCl]
Z.CTG [1]: 1.009
Z.CTG [2]: 0.873
Z.CTG [3]: −1.862
Z.CTG [4]: −2.741

CCCCCCCCCCCC1=C(O)C(=O)C=C(O)C1=O [Embelin]
Z.CTG [5]: −0.770
Z.CTG [6]: −1.728
Z.CTG [7]: −0.776
Z.CTG [8]: −1.720

Cc1sc2c(c1C)C(c1ccc(Cl)cc1)=N[C@@H](CC(=O)Nc1ccc(O)cc1)c1nnc(C)n1-2 [OTX015]
Z.CTG [5]: −0.092
Z.CTG [6]: −0.952
Z.CTG [7]: −1.638
Z.CTG [8]: −2.169

CN(C)CCOc1ccc(/C(=C(/CCCl)c2ccccc2)c2ccccc2)cc1 [Toremifene Citrate]
Z.CTG (standard z score) (dose 0.08 uM): 0.822
Z.CTG (standard z score) (dose 0.40 uM): 0.285
Z.CTG (standard z score) (dose 2.00 uM): −2.417
Z.CTG (standard z score) (dose 10.00 uM): −3.335

Nc1cccc2c1C(=O)N(C1CCC(=O)NC1=O)C2=O (stereo not drawn) [Pomalidomide]
Z.CTG [5]: 0.150
Z.CTG [6]: 0.536
Z.CTG [7]: −0.517
Z.CTG [8]: −0.729

COc1cc(N2CCC(N3CCN(C)CC3)CC2)ccc1Nc1ncc(Cl)c(Nc2ccccc2P(C)(C)=O)n1 [AP26113]
Z.CTG [1]: −0.130
Z.CTG [2]: 0.145
Z.CTG [3]: −1.333
Z.CTG [4]: −4.012

O=c1ncn2nc(Sc3ccc(F)cc3F)ccc2c1-c1c(Cl)cccc1Cl [VX-745]
Z.CTG (standard z score) (dose 0.08 uM): 0.445
Z.CTG (standard z score) (dose 0.40 uM): 0.349
Z.CTG (standard z score) (dose 2.00 uM): 0.044
Z.CTG (standard z score) (dose 10.00 uM): 0.053

Oc1cc(O)cc(/C=C/c2ccc(O)c(O)c2)c1 [Piceatannol]
Z.CTG [5]: 0.554
Z.CTG [6]: −0.216
Z.CTG [7]: 0.177
Z.CTG [8]: −0.170

CCCCN1CCCCC1C(=O)Nc1c(C)cccc1C (stereo not drawn) [Bupivacaine HCl]
Z.CTG [8]: −0.870
Z.CTG [1]: −0.008
Z.CTG [2]: −0.517
Z.CTG [3]: −0.717

CCOC(=O)[C@H]1O[C@@H]1C(=O)N[C@@H](CC(C)C)C(=O)NCCC(C)C [Aloxistatin]
Z.CTG [1]: −0.015
Z.CTG [2]: −0.014
Z.CTG [3]: −0.308
Z.CTG [4]: −0.511

COc1ccc2c(c1)C(=O)N(CCc1ccc(S(=O)(=O)NC(=O)NC3CCCCC3)cc1)C(=O)C2(C)C [Gliquidone]
Z.CTG [5]: 0.297
Z.CTG (Dose 0.40 uM, primary screen, standard z score): 0.247
Z.CTG (Dose 2.00 uM, primary screen, standard z score): 0.588
Z.CTG (Dose 10.00 uM, primary screen, standard z score): 0.320

Nc1nc(N)c2nc(-c3ccccc3)c(N)nc2n1 [Triamterene]
Z.CTG (standard z score) (dose 0.08 uM): −0.070
Z.CTG (standard z score) (dose 0.40 uM): −0.394
Z.CTG (standard z score) (dose 2.00 uM): −0.241
Z.CTG (standard z score) (dose 10.00 uM): −1.103

CC(=O)OCC(=O)NCCCOc1cccc(CN2CCCCC2)c1 [Roxatidine Acetate HCl]
Z.CTG (standard z score) (Dose 0.08 uM, primary screen): −0.095
Z.CTG (standard z score) (Dose 0.40 uM, primary screen): 0.050
Z.CTG (standard z score) (Dose 2.00 uM, primary screen): −0.245
Z.CTG (standard z score) (Dose 10.00 uM, primary screen): −0.564

C[C@@H](c1ncncc1F)[C@](O)(Cn1cncn1)c1ccc(F)cc1F [Voriconazole]
Z.CTG (standard z score) (dose 0.08 uM): 0.617
Z.CTG (standard z score) (dose 0.40 uM): 0.730
Z.CTG (standard z score) (dose 2.00 uM): 0.680
Z.CTG (standard z score) (dose 10.00 uM): 0.783

COc1cc2nc(N3CCN(C(=O)C4COc5ccccc5O4)CC3)nc(N)c2cc1OC (stereo not drawn) [Doxazosin Mesylate]
Z.CTG [5]: 0.171
Z.CTG [6]: −0.037
Z.CTG [7]: 0.349
Z.CTG [8]: 0.179

Oc1c2ccccc2c2c3c(cccc13)N=N2 [SP600125]
Z.CTG (standard z score) (Dose 0.08 uM, primary screen): 0.471
Z.CTG (standard z score) (Dose 0.40 uM, primary screen): 0.347
Z.CTG (standard z score) (Dose 2.00 uM, primary screen): 0.246
Z.CTG (standard z score) (Dose 10.00 uM, primary screen): −0.047

CCN(c1cc(-c2ccc(CN3CCOCC3)cc2)cc(C(=O)NCc2c(C)cc(C)[nH]c2=O)c1C)C1CCOCC1 [EPZ-6438]
Z.CTG [5]: 0.107
Z.CTG [6]: 0.178
Z.CTG [7]: −0.163
Z.CTG [8]: 0.802

CNC(=C[N+](=O)[O-])NCCSCc1ccc(CN(C)C)o1 [Ranitidine]
Z.CTG (standard z score) (Dose 0.08 uM, primary screen): −0.121
Z.CTG (standard z score) (Dose 0.40 uM, primary screen): 0.370
Z.CTG (standard z score) (Dose 2.00 uM, primary screen): −0.165
Z.CTG (standard z score) (Dose 10.00 uM, primary screen): −0.625

c1ccc(CC2=NCCN2)cc1 [Tolazoline HCl]
Z.CTG (standard z score) (dose 0.08 uM): 0.585
Z.CTG (standard z score) (dose 0.40 uM): 0.530
Z.CTG (standard z score) (dose 2.00 uM): −0.122
Z.CTG (standard z score) (dose 10.00 uM): −0.496

COc1c(O)cc2c(c1O)[C@@H]1O[C@H](CO)[C@@H](O)[C@H](O)[C@H]1OC2=O [Bergenin]
Z.CTG [1]: 0.687
Z.CTG [2]: 0.585
Z.CTG [3]: 0.491
Z.CTG [4]: 0.821

O=C(NC[C@H]1CN(c2ccc(N3CCOCC3=O)cc2)C(=O)O1)c1ccc(Cl)s1 [Rivaroxaban]
Z.CTG (standard z score) (Dose 0.08 uM, primary screen): 0.050
Z.CTG (standard z score) (Dose 0.40 uM, primary screen): 0.466
Z.CTG (standard z score) (Dose 2.00 uM, primary screen): 0.123
Z.CTG (standard z score) (Dose 10.00 uM, primary screen): 0.104

CN1CCN(c2nc(C3=C(c4c[nH]c5ccccc45)C(=O)NC3=O)c3ccccc3n2)CC1 [Sotrastaurin]
Z.CTG (standard z score) (Dose 0.08 uM, primary screen): 0.024
Z.CTG (standard z score) (Dose 0.40 uM, primary screen): −0.286
Z.CTG (standard z score) (Dose 2.00 uM, primary screen): −0.650
Z.CTG (standard z score) (Dose 10.00 uM, primary screen): −0.578

CNCc1ccc(-c2cc(-c3nc(-c4ccc(S(=O)(=O)C(C)C)cc4)cnc3N)on2)cc1 [VE-822]
Z.CTG (standard z score) (dose 0.08 uM): −0.351
Z.CTG (standard z score) (dose 0.40 uM): −0.685
Z.CTG (standard z score) (dose 2.00 uM): −1.713
Z.CTG (standard z score) (dose 10.00 uM): −4.212

Cc1ccc(-c2cc(C(F)(F)F)nn2-c2ccc(S(N)(=O)=O)cc2)cc1 [Celecoxib]
Z.CTG [5]: −0.082
Z.CTG [6]: −0.714
Z.CTG [7]: −0.282
Z.CTG [8]: −0.306

NC(=O)c1ncn([C@@H]2O[C@H](CO)[C@@H](O)[C@H]2O)c1N [Acadesine]
Z.CTG [1]: 0.225
Z.CTG [2]: 0.413
Z.CTG [3]: −0.012
Z.CTG [4]: 0.182

C[C@]12CC[C@@H]3c4ccc(O)cc4C[C@@H](CCCCCCCCC[S+]([O-])CCCC(F)(F)C(F)(F)F)[C@H]3[C@@H]1CC[C@@H]2O (stereo partly drawn) [Fulvestrant]
Z.CTG [5]: 0.285
Z.CTG [6]: −0.150
Z.CTG [7]: 0.339
Z.CTG [8]: −0.488

O=C(O)/C=C/c1ccc(Cn2ccnc2)cc1 [Ozagrel]
Z.CTG [5]: 0.131
Z.CTG [6]: 0.535
Z.CTG [7]: −0.149
Z.CTG [8]: 0.271

Cc1cc(C(C)(C)C)c(O)c(C)c1CC1=NCCN1 [Oxymetazoline HCl]
Z.CTG [5]: 0.340
Z.CTG [6]: 0.281
Z.CTG [7]: −0.016
Z.CTG [8]: 0.282

C[C@@H](O[C@H]1OCCN(Cc2n[nH]c(=O)[nH]2)[C@H]1c1ccc(F)cc1)c1cc(C(F)(F)F)cc(C(F)(F)F)c1 [Aprepitant]
Z.CTG [1]: 0.747
Z.CTG [2]: 0.962
Z.CTG [3]: 0.346
Z.CTG [4]: 0.121

CCc1cccc2c3c([nH]c12)C(CC)(CC(=O)O)OCC3 (stereo not drawn) [Etodolac]
Z.CTG [5]: −0.147
Z.CTG [6]: 0.117
Z.CTG [7]: 0.020
Z.CTG [8]: 0.054

O=c1oc2cc(O)ccc2s1 [Tioxolone]
Z.CTG (standard z score) (dose 0.08 uM): 0.586
Z.CTG (standard z score) (dose 0.40 uM): 0.212
Z.CTG (standard z score) (dose 2.00 uM): 0.105
Z.CTG (standard z score) (dose 10.00 uM): 0.783

C#CCN[C@@H]1CCc2ccccc21 [Rasagiline Mesylate]
Z.CTG (standard z score) (Dose 0.08 uM, primary screen): 0.367
Z.CTG (standard z score) (Dose 0.40 uM, primary screen): 0.246
Z.CTG (standard z score) (Dose 2.00 uM, primary screen): 0.099
Z.CTG (standard z score) (Dose 10.00 uM, primary screen): 0.249

CC(C)OC(=O)C1=CN(C(=O)c2ccc(F)c(F)c2)CC(C)(C)c2c1[nH]c1ccccc21 [XL335]
Z.CTG (standard z score) (dose 0.08 uM): 0.297
Z.CTG (standard z score) (dose 0.40 uM): −0.615
Z.CTG (standard z score) (dose 2.00 uM): −0.619
Z.CTG (standard z score) (dose 10.00 uM): −0.373
